Laboratory results published in US10130674B2, “Modified peptide that reduces pain in peripheral neuropathy” (Creative Bio-Peptides, priority 2010, dated 2018).

How the values were obtained:
[1] = data not shown
[2] = data not shown; remark: listed apart in the source
[3] = tested on: CCR5-specific virus (HIVBaL); assay: In vitro CCR5 receptor viral infectivity assay (GHOST R5 reporter cells); assay type: cell-based, HIV; settings: GFP reporter
Method: This virus uses CCR5 receptor binding to infect its host cell.
In Vitro CCR5 Receptor Viral Infectivity Assay
A CCR5-specific virus (HIVBaL) was added 1 hr later. CCR5 receptor viral infectivity was tested on CCR5-containing cells with a Green Fluorescent Protein (GFP) reporter that responds to viral infection.
The experiment, which was repeated 5 times in various cell systems, was performed in triplicate and bars correspond to standard error of the mean. Data were analyzed by a nonlinear fit using GraphPad Prism 5.

CCR5 = CCR5 (Homo sapiens, UniProt P51681); settings: cited from earlier work
[4] = Nerve damage neuropathic pain, DAPTA pilot study; assay type: in vivo, rat

CCR5, sequence (P51681 whole entry): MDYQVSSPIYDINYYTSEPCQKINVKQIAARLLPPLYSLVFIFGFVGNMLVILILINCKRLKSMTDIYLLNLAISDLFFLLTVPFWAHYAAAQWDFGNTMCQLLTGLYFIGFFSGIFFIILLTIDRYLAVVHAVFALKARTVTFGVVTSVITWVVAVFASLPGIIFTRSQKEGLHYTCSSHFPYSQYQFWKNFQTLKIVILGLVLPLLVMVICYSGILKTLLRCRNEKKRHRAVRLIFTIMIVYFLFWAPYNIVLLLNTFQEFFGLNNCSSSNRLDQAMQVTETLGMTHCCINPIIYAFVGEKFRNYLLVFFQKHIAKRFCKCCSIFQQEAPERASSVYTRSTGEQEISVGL

Row | Compound | paw withdrawal threshold in naïve animals [1] | paw withdrawal latency in naïve animals [2] | block of infection by CCR5 using virus (HIVBaL) [3] | affinity for R5 (CCR5) | neuropathic pain development ([4]; pilot study, 0.01 mg/kg, not shown) | pain in the paw ipsilateral to nerve damage ([4]; rats)
1 | C[C@H](O)[C@@H](N)C(=O)N[C@@H](C(=O)N[C@H](CC(N)=O)C(=O)N[C@H](Cc1ccc(O)cc1)C(=O)N[C@@H](C(=O)O)[C@H](C)O)[C@H](C)O [All D TTNYT] | did not alter | did not alter |  |  |  | 
2 | D-Ala-Peptide T-amide [DAPTA] |  |  | block CCR5 receptors | femtomolar range | inhibited neuropathic pain development | attenuated pain
